These results are taken from US20150335610A1, “PDK4 INHIBITOR AND USE THEREOF” (priority 2012, published 2015).

In one series the test system is normal cells. Kind of series: Anchorage-independent growth of normal cells. The format is cell-based. The conditions noted are these: even at the order of several tens of μM.
For the next series, the target named is PDK4 (Homo sapiens, UniProt Q16654). Kind of series: PDK4-inhibitory activity by off-chip mobility shift assay (phosphorylation of PDH E1 subunit). It is filed as biochemical. The following applies: for IC50: phosphorylation of E1 subunit of PDH, 100 μM ATP, human recombinant PDK. How it is done: The PDK2 and PDK4-inhibitory activities were determined by measuring the phosphorylation of the E1 subunit of PDH in the presence of 100 μM ATP.
1) 5 μL of 4-fold concentrated solutions of test substances, 5 μL of 4-fold concentrated solutions of substrates (recombinant human PDH)/ATP/metal, and 10 μL of 2-fold concentrated solutions of human recombinant PDK were prepared with an assay buffer (20 mM HEPES, 0.01% Triton X-100, 2 mM DTT, pH 7.5) and then were mixed in the wells of a polypropylene 384-well plate, followed by reactions for five hours at room temperature.
2) Reactions were terminated by adding 60 μL of Termination Buffer (QuickScout Screening Assist MSA; Carna Biosciences, Inc.).
3) Peptide substrates and phosphorylated peptides in the reaction solutions were separated by LabChip3000 system (Caliper Life Science) and quantified (gel shift assay). The phosphorylation activity was assessed by product ratios (P/(P+S)) calculated from the peptide substrate peak height (S) and the phosphorylated peptide peak height (P).
4) The inhibitory percentage was calculated as follows.

The test system of another series is cells cancerated by Ras. Kind of series: Anchorage-independent sphere growth of cells cancerated by Ras. The conditions noted are these: at μM to 10 μM order. The format is cell-based.
The conditions of series [1]: background art, Non-Patent Literature 4; cited from earlier work.
Series [2] concerns pyruvate dehydrogenase (PDH). The format is in vivo, mouse. The conditions noted are these: KIS7 2.8 mg/kg/day, DCA 56 mg/kg/day i.p., FIG. 10.
The test system of another series is HeLaS3 cells. Kind of series: Soft agar colony formation assay of cancer cells HeLaS3. The format is cell-based. The following applies: at 3 μM; eight days of culture; FIG. 14. How it is done:
A conventional method was employed for a soft agar colony formation assay of cancer cells HeLaS3 (C. Oneyama et. al. Genes to Cells 2008; 13: 1 to 129). The HeLaS3 cells (4×10^4) were mixed with 3 ml of soft agar medium (Dulbecco modified Eagle's medium, 10% calf serum, 0.36% agar) and poured into a well of 6 cm-cell culture plate, which was added 5 ml of the base agar medium (Dulbecco modified Eagle's medium, 10% calf serum, 0.7% agar) in advance. After eight days of culture in a carbon dioxide gas incubator at 37° C., colonies were stained with MTT (3-(4,5-dimethylthiazol-2-yl)-2,5-diphenyltetrazolium bromide).

Sequence of PDK4 (Q16654 whole entry): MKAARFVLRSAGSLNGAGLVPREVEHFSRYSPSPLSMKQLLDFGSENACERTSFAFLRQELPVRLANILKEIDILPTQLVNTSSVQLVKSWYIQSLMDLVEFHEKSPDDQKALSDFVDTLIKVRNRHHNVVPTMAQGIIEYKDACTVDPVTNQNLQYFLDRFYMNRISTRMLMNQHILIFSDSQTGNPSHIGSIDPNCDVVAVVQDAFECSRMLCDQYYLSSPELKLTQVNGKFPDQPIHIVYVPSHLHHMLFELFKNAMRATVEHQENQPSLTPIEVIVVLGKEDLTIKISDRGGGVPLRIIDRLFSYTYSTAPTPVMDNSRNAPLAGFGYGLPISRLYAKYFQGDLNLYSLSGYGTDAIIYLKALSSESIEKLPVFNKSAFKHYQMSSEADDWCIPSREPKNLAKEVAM

Regarding `Cc1cccc2c3c(ccc12)C1=C(C(=O)C3=O)[C@@H](C)CO1` [KIS116, dihydrotanshinone I], in the series with normal cells, the “anchorage-independent growth of normal cells” value (from here on “anchorage-independent growth”) is recorded as “did not inhibit”. In addition, at PDK4, the IC50 is less than 4 µM. In addition, the “anchorage-independent sphere growth of cells cancerated by Ras” value (“anchorage-independent sphere growth” for short) with cells cancerated by Ras is recorded as “suppressed the anchorage-independent sphere growth”.
Consider `O=C(O)C(Cl)Cl` [DCA, dichloroacetic acid, reference compound], for which the side effects entry in series [1] is reported as “severe side effects such as neurotoxicity”. Further, in series [2], the “PDH enzyme activity in liver tissue” value is reported as “equivalent PDH activities to non-infected mice”.
For `Cc1cc2c(C(C)C)c(O)c(O)c(C=O)c2c(O)c1-c1c(C)cc2c(C(C)C)c(O)c(O)c(C=O)c2c1O` [KIS7, gossypol], in the series with normal cells, the “anchorage-independent growth” value is “did not inhibit”. Moreover, the “dose inhibiting PDK4 compared with DCA and Radicicol” value on PDK4 (FIG. 4) was “far lower dose as compared with DCA and Radicicol”. In addition, the “effect on PDK4 activity (activation or inhibition)” value at PDK4 (comparison with known PDK inhibitory substances, FIG. 4) is given as “inhibited PDK4”. For the same molecule, the half-inhibitory concentration (IC50) at PDK4 was 4 µM. The “PDH enzyme activity in liver tissue” value in series [2] was “equivalent PDH activities to non-infected mice”. For the same molecule, the “anchorage-independent sphere growth” value in the series on cells cancerated by Ras is given as “suppressed the anchorage-independent sphere growth”. In the series with HeLaS3 cells, the “colony formation of HeLaS3 in soft agar” value is “inhibited the colony formation”.
In the case of `CC1(C)CCC2=C(O1)c1ccccc1C(=O)C2=O` [KIS24, β-lapachone], the IC50 on PDK4 amounted to 3 µM. Further, the “anchorage-independent sphere growth” value with cells cancerated by Ras was “suppressed the anchorage-independent sphere growth”. Besides, the “colony formation of HeLaS3 in soft agar” value in the series on HeLaS3 cells was “inhibited the colony formation”.
As to `C[C@H]1COC2=C1C(=O)C(=O)c1c2ccc2c1CCCC2(C)C` [KIS37, cryptotanshinone], the “anchorage-independent growth” value in the series on normal cells is “did not inhibit”. In addition, on PDK4, the half-inhibitory concentration (IC50) came to 11 µM. For the same molecule, in the series with cells cancerated by Ras, the “anchorage-independent sphere growth” value is “suppressed the anchorage-independent sphere growth”. The “colony formation of HeLaS3 in soft agar” value in the series with HeLaS3 cells is “inhibited the colony formation”.
Turning to `Cc1cc2c(C(C)C)c(O)c(O)c(/C=N/c3ccccc3C(=O)O)c2c(O)c1-c1c(C)cc2c(C(C)C)c(O)c(O)c(/C=N/c3ccccc3C(=O)O)c2c1O` [KIS28], the IC50 on PDK4 is 13.2 µM.

For orientation: IC50 means the concentration at which inhibition is half-maximal.
